# From patent US9426996B2, “Use of benzoxaboroles as volatile antimicrobial agents on meats, plants, or plant parts” (AgroFresh Inc., priority 2013, dated 2016)
# Test system: Botrytis cinerea
# Assay: in vitro inhibition assay for volatile antimicrobial compounds (12-well PDA plates)
# Assay type: cell-based
# Settings: 14 days at 4° C.; for lowest rate with 100% control of Botrytis cinerea: in vitro, volatile
# Method: 12-Well (7 milliliter (mL volume per well) microtiter plates are used for the in vitro inhibition assay for volatile antimicrobial compounds. A 3-mL volume of full-strength Potato Dextrose Agar (PDA) is added to each well. After cooling, 1 microliter (μL) of 1×10^6 per mL Botrytis cinerea spore suspension is spot pipetted to the center of the agar. For the first experiment, inoculated plates are allowed to germinate for 5 days at 4° C. For the second experiment, plates are inoculated immediately prior to volatile fungicide treatment. Small Whatman #1 filter disks (Cat. No. 1001-0155) are placed, in duplicate, on the underside of a polyethylene PCR plate sealing film.
# The acetone is permitted to evaporate for 5 minutes. The headspace around the Botrytis cinerea inoculum is then sealed inside the well by the film with the adhering disk containing the fungicide. Plates are inverted, placed over the treated disks and sealed to prevent any of the chemical from flaking from the disk and falling onto the inoculated agar. After 14 days of storage at 4° C., cultures are evaluated for percent growth relative to control. Regardless of whether the spores had germinated for 5 days, or if the treatment commenced soon after inoculation of the plates (˜15 minutes); there is 100% control of the fungal pathogen down to 0.005 mg.
# A total of 14 antimicrobial compounds are tested using the in vitro inhibition assay described in Example 1. All 14 compounds are applied to the Whatman disks, in duplicate, in a dose dependent manner (0.31 to 0.0006 mg/disk). […] Other compounds, such as Compound C, Compound D, and Compound E conferred 100% control down to 0.023, 0.04, and 0.08 mg/disk, respectively. Results of nine compounds are summarized in Table 2, where the other five compounds show no detected activity in the ranges tested. […]
structure (smiles),measurement,setting,value
Fc1ccc2c(c1)COB2/C=C/c1ccccc1 [Compound E],Botrytis inhibition % (in vitro),0.0006 mg per disk,13%
same,Botrytis inhibition % (in vitro),0.001 mg per disk,13%
same,Botrytis inhibition % (in vitro),0.0024 mg per disk,28%
same,Botrytis inhibition % (in vitro),0.005 mg per disk,38%
same,Botrytis inhibition % (in vitro),0.01 mg per disk,69%
same,Botrytis inhibition % (in vitro),0.023 mg per disk,79%
same,Botrytis inhibition % (in vitro),0.04 mg per disk,79%
same,Botrytis inhibition % (in vitro),0.08 mg per disk,100%
same,Botrytis inhibition % (in vitro),0.16 mg per disk,100%
same,Botrytis inhibition % (in vitro),0.31 mg per disk,100%
same,lowest rate with 100% control of Botrytis cinerea,,0.08 mg/disk
FC(F)(F)c1ccc2c(c1)COB2c1ccsc1 [G],Botrytis inhibition % (in vitro),0.0006 mg per disk,0%
same,Botrytis inhibition % (in vitro),0.001 mg per disk,0%
same,Botrytis inhibition % (in vitro),0.0024 mg per disk,0%
same,Botrytis inhibition % (in vitro),0.005 mg per disk,0%
same,Botrytis inhibition % (in vitro),0.01 mg per disk,0%
same,Botrytis inhibition % (in vitro),0.023 mg per disk,3%
same,Botrytis inhibition % (in vitro),0.04 mg per disk,13%
same,Botrytis inhibition % (in vitro),0.08 mg per disk,43%
same,Botrytis inhibition % (in vitro),0.16 mg per disk,78%
same,Botrytis inhibition % (in vitro),0.31 mg per disk,100%
COc1cccc2c1B(O)OC2 [K],Botrytis inhibition % (in vitro),0.0006 mg per disk,0%
same,Botrytis inhibition % (in vitro),0.001 mg per disk,0%
same,Botrytis inhibition % (in vitro),0.0024 mg per disk,0%
same,Botrytis inhibition % (in vitro),0.005 mg per disk,0%
same,Botrytis inhibition % (in vitro),0.01 mg per disk,0%
same,Botrytis inhibition % (in vitro),0.023 mg per disk,0%
same,Botrytis inhibition % (in vitro),0.04 mg per disk,0%
same,Botrytis inhibition % (in vitro),0.08 mg per disk,5%
same,Botrytis inhibition % (in vitro),0.16 mg per disk,29%
same,Botrytis inhibition % (in vitro),0.31 mg per disk,48%
FC(F)(F)c1ccc2c(c1)COB2c1ccccc1 [F],Botrytis inhibition % (in vitro),0.0006 mg per disk,0%
same,Botrytis inhibition % (in vitro),0.001 mg per disk,0%
same,Botrytis inhibition % (in vitro),0.0024 mg per disk,0%
same,Botrytis inhibition % (in vitro),0.005 mg per disk,8%
same,Botrytis inhibition % (in vitro),0.01 mg per disk,8%
same,Botrytis inhibition % (in vitro),0.023 mg per disk,10%
same,Botrytis inhibition % (in vitro),0.04 mg per disk,18%
same,Botrytis inhibition % (in vitro),0.08 mg per disk,40%
same,Botrytis inhibition % (in vitro),0.16 mg per disk,53%
same,Botrytis inhibition % (in vitro),0.31 mg per disk,70%
OB1OCCc2ccccc21 [J],Botrytis inhibition % (in vitro),0.0006 mg per disk,0%
same,Botrytis inhibition % (in vitro),0.001 mg per disk,0%
same,Botrytis inhibition % (in vitro),0.0024 mg per disk,0%
same,Botrytis inhibition % (in vitro),0.005 mg per disk,0%
same,Botrytis inhibition % (in vitro),0.01 mg per disk,0%
same,Botrytis inhibition % (in vitro),0.023 mg per disk,0%
same,Botrytis inhibition % (in vitro),0.04 mg per disk,5%
same,Botrytis inhibition % (in vitro),0.08 mg per disk,8%
same,Botrytis inhibition % (in vitro),0.16 mg per disk,13%
same,Botrytis inhibition % (in vitro),0.31 mg per disk,50%
Fc1ccc2c(c1)COB2c1ccsc1 [Compound D],Botrytis inhibition % (in vitro),0.0006 mg per disk,0%
same,Botrytis inhibition % (in vitro),0.001 mg per disk,0%
same,Botrytis inhibition % (in vitro),0.0024 mg per disk,15%
same,Botrytis inhibition % (in vitro),0.005 mg per disk,38%
same,Botrytis inhibition % (in vitro),0.01 mg per disk,70%
same,Botrytis inhibition % (in vitro),0.023 mg per disk,80%
same,Botrytis inhibition % (in vitro),0.04 mg per disk,100%
same,Botrytis inhibition % (in vitro),0.08 mg per disk,100%
same,Botrytis inhibition % (in vitro),0.16 mg per disk,100%
same,Botrytis inhibition % (in vitro),0.31 mg per disk,100%
same,lowest rate with 100% control of Botrytis cinerea,,0.04 mg/disk
OB1OCc2cc(C(F)(F)F)ccc21 [H],Botrytis inhibition % (in vitro),0.0006 mg per disk,0%
same,Botrytis inhibition % (in vitro),0.001 mg per disk,0%
same,Botrytis inhibition % (in vitro),0.0024 mg per disk,0%
same,Botrytis inhibition % (in vitro),0.005 mg per disk,0%
same,Botrytis inhibition % (in vitro),0.01 mg per disk,3%
same,Botrytis inhibition % (in vitro),0.023 mg per disk,18%
same,Botrytis inhibition % (in vitro),0.04 mg per disk,38%
same,Botrytis inhibition % (in vitro),0.08 mg per disk,55%
same,Botrytis inhibition % (in vitro),0.16 mg per disk,80%
same,Botrytis inhibition % (in vitro),0.31 mg per disk,85%
Fc1ccc2c(c1)COB2c1ccccc1 [Compound C],Botrytis inhibition % (in vitro),0.0006 mg per disk,0%
same,Botrytis inhibition % (in vitro),0.001 mg per disk,15%
same,Botrytis inhibition % (in vitro),0.0024 mg per disk,43%
same,Botrytis inhibition % (in vitro),0.005 mg per disk,63%
same,Botrytis inhibition % (in vitro),0.01 mg per disk,83%
same,Botrytis inhibition % (in vitro),0.023 mg per disk,100%
same,Botrytis inhibition % (in vitro),0.04 mg per disk,100%
same,Botrytis inhibition % (in vitro),0.08 mg per disk,100%
same,Botrytis inhibition % (in vitro),0.16 mg per disk,100%
same,Botrytis inhibition % (in vitro),0.31 mg per disk,100%
same,lowest rate with 100% control of Botrytis cinerea,,0.023 mg/disk
